Data as given in PubChem BioAssay AID1845202 (Molecular Pharmacology Branch, DTP, NCI, 2023).

System: DMS 114 tumor spheroids, viability % test/control
Experiment: Anticancer human tumor DMS 114 cell line growth inhibition;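 further: spheroids exposed to compounds for 7 days before read-out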;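 on viability, T/C: luminescence used as a proxy for viable cells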
Conditions: spheroids with HUVEC and MSC; for IC50: curve of first compound; for viability, T/C: stronger effect = lower value
In short: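 Single agents and combinations were tested on spheroids built from tumor cells plus HUVEC and hMSC, at half-log dilutions starting at or near clinical Cmax, else 10 microM; final DMSO 0.25% (v/v).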

[1] = second compound 1 µM, first compound 0.0316 µM
[2] = second compound 1 µM, first compound 0.1 µM
[3] = second compound 1 µM, first compound 0.316 µM
[4] = second compound 1 µM, first compound 1 µM
[5] = second compound 1 µM, first compound 3.16 µM
[6] = second compound 1 µM, first compound 10 µM
[7] = second compound 3.16 µM, first compound 0.0316 µM
[8] = second compound 3.16 µM, first compound 0.1 µM
[9] = second compound 3.16 µM, first compound 0.316 µM
[10] = second compound 3.16 µM, first compound 1 µM
[11] = second compound 3.16 µM, first compound 3.16 µM
[12] = second compound 3.16 µM, first compound 10 µM
[13] = second compound 10 µM, first compound 0.0316 µM
[14] = second compound 10 µM, first compound 0.1 µM
[15] = second compound 10 µM, first compound 0.316 µM
[16] = second compound 10 µM, first compound 1 µM
[17] = second compound 10 µM, first compound 3.16 µM
[18] = second compound 10 µM, first compound 10 µM
[19] = second compound 31.6 µM, first compound 0.0316 µM
[20] = second compound 31.6 µM, first compound 0.1 µM
[21] = second compound 31.6 µM, first compound 0.316 µM
[22] = second compound 31.6 µM, first compound 1 µM
[23] = second compound 31.6 µM, first compound 3.16 µM
[24] = second compound 31.6 µM, first compound 10 µM
[25] = second compound 100 µM, first compound 0.0316 µM
[26] = second compound 100 µM, first compound 0.1 µM
[27] = second compound 100 µM, first compound 0.316 µM
[28] = second compound 100 µM, first compound 1 µM
[29] = second compound 100 µM, first compound 3.16 µM
[30] = second compound 100 µM, first compound 10 µM

Structure (SMILES) | IC50 (second compound 1 µM) [µM] | IC50 (second compound 3.16 µM) [µM] | IC50 (second compound 10 µM) [µM] | IC50 (second compound 31.6 µM) [µM] | IC50 (second compound 100 µM) [µM] | viability, T/C [1] [%] | viability, T/C [2] [%] | viability, T/C [3] [%] | viability, T/C [4] [%] | viability, T/C [5] [%] | viability, T/C [6] [%] | viability, T/C [7] [%] | viability, T/C [8] [%] | viability, T/C [9] [%] | viability, T/C [10] [%] | viability, T/C [11] [%] | viability, T/C [12] [%] | viability, T/C [13] [%] | viability, T/C [14] [%] | viability, T/C [15] [%] | other results
CC(C)n1c(=O)n(C)c2cnc3cc(F)c(-c4ccc(OCCCN5CCCCC5)nc4)cc3c21 + Cn1nnc2c(C(N)=O)ncn2c1=O | 6.43 | 7.31 | 6.55 | 6.08 | 4.32 | 95.4 | 100 | 101 | 98.9 | 75.4 | 34.2 | 104 | 105 | 104 | 106 | 94.8 | 32.9 | 103 | 111 | 105 | viability, T/C [16]: 93.5%; viability, T/C [17]: 79%; viability, T/C [18]: 33.4%; viability, T/C [19]: 99.6%; viability, T/C [20]: 96%; viability, T/C [21]: 101%; viability, T/C [22]: 95.3%; viability, T/C [23]: 71.2%; viability, T/C [24]: 33.8%; viability, T/C [25]: 85.8%; viability, T/C [26]: 81.6%; viability, T/C [27]: 82.9%; viability, T/C [28]: 84.8%; viability, T/C [29]: 58.8%; viability, T/C [30]: 26.5%
CC1COCCN1c1cc(-c2ccnn2C)c2ccnc(-c3ccn[nH]3)c2n1 (stereo not given) + Cn1nnc2c(C(N)=O)ncn2c1=O | 0.0443 | 0.0558 | 0.0339 | < 0.0316 | < 0.0316 | 56.6 | 33.9 | 22.8 | 11.8 | 10.1 | 10.4 | 63 | 35.4 | 24.9 | 13.2 | 9.36 | 10.9 | 51 | 35.5 | 21.7 | viability, T/C [16]: 11.9%; viability, T/C [17]: 10.2%; viability, T/C [18]: 11.7%; viability, T/C [19]: 36.9%; viability, T/C [20]: 30.3%; viability, T/C [21]: 20.5%; viability, T/C [22]: 13.5%; viability, T/C [23]: 9.89%; viability, T/C [24]: 10.1%; viability, T/C [25]: 24%; viability, T/C [26]: 21.3%; viability, T/C [27]: 16.1%; viability, T/C [28]: 10.8%; viability, T/C [29]: 8.42%; viability, T/C [30]: 10.2%
COc1cc(C)[nH]c(=O)c1CN1CCc2c(Cl)cc(C(OC)C3COC3)c(Cl)c2C1=O (stereo not given) + Cn1nnc2c(C(N)=O)ncn2c1=O | > 10 | > 10 | > 10 | > 10 | > 10 | 103 | 93.3 | 82.7 | 78.4 | 73 | 71 | 109 | 97.1 | 91 | 82.3 | 76.5 | 71.7 | 115 | 99.5 | 93.1 | viability, T/C [16]: 82%; viability, T/C [17]: 80.5%; viability, T/C [18]: 70.1%; viability, T/C [19]: 102%; viability, T/C [20]: 103%; viability, T/C [21]: 86.5%; viability, T/C [22]: 84.2%; viability, T/C [23]: 70.1%; viability, T/C [24]: 67.5%; viability, T/C [25]: 90.7%; viability, T/C [26]: 95.6%; viability, T/C [27]: 73.3%; viability, T/C [28]: 64.3%; viability, T/C [29]: 61.2%; viability, T/C [30]: 57.1%
COc1ccc([C@@H](O)c2cc(-c3ncnc4cc(N5CCOCC5)ccc34)c(F)cc2Cl)nn1 + Cn1nnc2c(C(N)=O)ncn2c1=O | 8.43 | > 10 | 9.93 | 8.47 | 5.87 | 101 | 103 | 99.3 | 114 | 94.8 | 42.3 | 107 | 109 | 102 | 117 | 95.6 | 50.5 | 100 | 108 | 114 | viability, T/C [16]: 106%; viability, T/C [17]: 86.9%; viability, T/C [18]: 49.8%; viability, T/C [19]: 104%; viability, T/C [20]: 95.8%; viability, T/C [21]: 95.8%; viability, T/C [22]: 109%; viability, T/C [23]: 79.8%; viability, T/C [24]: 45%; viability, T/C [25]: 88.8%; viability, T/C [26]: 95.8%; viability, T/C [27]: 95.1%; viability, T/C [28]: 81.4%; viability, T/C [29]: 69.5%; viability, T/C [30]: 34%
